In general, pEC50 refers to −log10 of the EC50, conventionally taken in molar units.

Our source for the EC50 values is ChEMBL document CHEMBL6177981, “Bardoxolone Derivatives as Novel Pseudo-Natural Necroptosis Inhibitors by Destabilizing HSP90 Client Proteins” (J Med Chem, 2025).

One assay deals with L929. Kind of assay: Anti-necroptotic activity in TZ-induced mouse L929 cells assessed as increase in cell viability preincubated with Z-VAD-FMK followed by mTNFalpha stimulation for 4 hrs and measured after compound addition by CellTiter-Lumi luminescent cell viability assay. It counts as functional, cell-based.
Another assay relates to HT-29. Kind of assay: Anti-necroptotic activity in TSZ-induced human HT-29 cells assessed as increase in cell viability preincubated with Z-VAD-FMK and SM164 for 30 mins followed by TNFalpha stimulation for 12 hrs and measured after compound addition by CellTiter-Lumi luminescent cell viability assay. It counts as functional, cell-based.

pEC50: −log10 of the molar value.

For `CC1(C)CC[C@]2(C(=O)Nc3ccc4ccccc4c3)CC[C@]3(C)[C@H](C(=O)C=C4[C@@]5(C)C=C(C#N)C(=O)C(C)(C)[C@@H]5CC[C@]43C)[C@@H]2C1`, the pEC50 in the assay with L929 was < 5.00; in the assay on HT-29, 5.02.

`CC1(C)CC[C@]2(C(=O)n3ncc4ccccc43)CC[C@]3(C)[C@H](C(=O)C=C4[C@@]5(C)C=C(C#N)C(=O)C(C)(C)[C@@H]5CC[C@]43C)[C@@H]2C1`: the pEC50 in the assay with L929 and with HT-29 was < 5.00 in each case.

For the compound `CC1(C)CC[C@]2(C(=O)Nc3cnc4ccccc4n3)CC[C@]3(C)[C@H](C(=O)C=C4[C@@]5(C)C=C(C#N)C(=O)C(C)(C)[C@@H]5CC[C@]43C)[C@@H]2C1`, the pEC50 with L929 is < 5.00; in the assay on HT-29, 5.62.

Consider `COC(=O)[C@]12CCC(C)(C)C[C@H]1[C@H]1C(=O)C=C3[C@@]4(C)C5NC5C(=O)C(C)(C)[C@@H]4CC[C@@]3(C)[C@]1(C)CC2` (some centres not stated), for which the pEC50 in the assay with L929 and in the assay with HT-29 was < 5.00 in each case.

Consider `CC1(C)CC[C@]2(C(=O)Nc3ccc4occc4c3)CC[C@]3(C)[C@H](C(=O)C=C4[C@@]5(C)C=C(C#N)C(=O)C(C)(C)[C@@H]5CC[C@]43C)[C@@H]2C1`, for which the pEC50 in the assay with L929 was < 5.00; in the assay on HT-29, 5.88.

Take `CC1(C)CC[C@]2(C(=O)O)CC[C@]3(C)[C@H](C(=O)C=C4[C@@]5(C)C=C(C(N)=O)C(=O)C(C)(C)[C@@H]5CC[C@]43C)[C@@H]2C1`: the negative-log EC50 (pEC50) with L929 is < 5.00; in the assay on HT-29 it was 5.66.

In the case of `Cn1c(NC(=O)[C@]23CCC(C)(C)C[C@H]2[C@H]2C(=O)C=C4[C@@]5(C)C=C(C#N)C(=O)C(C)(C)[C@@H]5CC[C@@]4(C)[C@]2(C)CC3)nc2ccccc21`, the values for the pEC50 in the assay on L929 and in the assay on HT-29 were < 5.00 and 5.40, respectively.

On to `CC1(C)CC[C@]2(C(=O)O)CC[C@]3(C)C(=CC[C@@H]4[C@@]5(C)CC[C@H](O)C(C)(C)[C@@H]5CC[C@]43C)[C@@H]2C1` [OLEANOLIC_ACID], for which the pEC50 in the assay on L929 and in the assay with HT-29 was < 5.00 throughout.

With `CC1(C)CC[C@]2(C(=O)Nc3ccc4[nH]ccc4c3)CC[C@]3(C)[C@H](C(=O)C=C4[C@@]5(C)C=C(C#N)C(=O)C(C)(C)[C@@H]5CC[C@]43C)[C@@H]2C1`, the pEC50 is < 5.00 in the assay on L929 and 5.39 with HT-29.

For the compound `CC1(C)CC[C@]2(C(=O)N3CCc4ccccc43)CC[C@]3(C)[C@H](C(=O)C=C4[C@@]5(C)C=C(C#N)C(=O)C(C)(C)[C@@H]5CC[C@]43C)[C@@H]2C1`, the pEC50 in the assay with L929 and in the assay on HT-29 was < 5.00 each time.

As for `CC1(C)CC[C@]2(C(=O)n3nnc4ccccc43)CC[C@]3(C)[C@H](C(=O)C=C4[C@@]5(C)C=C(C#N)C(=O)C(C)(C)[C@@H]5CC[C@]43C)[C@@H]2C1`, the pEC50 was < 5.00 in the assay on L929 and 5.00 in the assay with HT-29.

Take `CC1(C)CC[C@]2(C(=O)O)[C@H](O)C[C@]3(C)C(=CC[C@@H]4[C@@]5(C)CC[C@H](O)C(C)(C)[C@@H]5CC[C@]43C)[C@@H]2C1`: the pEC50 with L929 and in the assay with HT-29 was < 5.00 in each case.

`CC1(C)CC[C@]2(C(=O)N3CCC(c4ccccc4)CC3)CC[C@]3(C)[C@H](C(=O)C=C4[C@@]5(C)C=C(C#N)C(=O)C(C)(C)[C@@H]5CC[C@]43C)[C@@H]2C1`: the pEC50 is < 5.00 in the assay on L929 and 5.24 in the assay with HT-29.

Regarding `CC1(C)CC[C@]2(C(=O)Nc3ccc4sncc4c3)CC[C@]3(C)[C@H](C(=O)C=C4[C@@]5(C)C=C(C#N)C(=O)C(C)(C)[C@@H]5CC[C@]43C)[C@@H]2C1`, the pEC50 is < 5.00 in the assay on L929 and 5.63 in the assay on HT-29.

As for `CC1(C)CC[C@]2(C(=O)Nc3ccc4sccc4c3)CC[C@]3(C)[C@H](C(=O)C=C4[C@@]5(C)C=C(C#N)C(=O)C(C)(C)[C@@H]5CC[C@]43C)[C@@H]2C1`, the values for the pEC50 in the assay on L929 and in the assay with HT-29 were < 5.00 and 5.31, respectively.

With `CC1(C)CC[C@]2(C(=O)Nc3ccc4ncsc4c3)CC[C@]3(C)[C@H](C(=O)C=C4[C@@]5(C)C=C(C#N)C(=O)C(C)(C)[C@@H]5CC[C@]43C)[C@@H]2C1`, the pEC50 in the assay with L929 is < 5.00; with HT-29, 5.45.
